Measured values: patent US20250235454A1, “XOPHOS INHIBITORS FOR USE IN THE TREATMENT OF B-CELL LYMPHOMA” (CENTRE NATIONAL DE LA RECHERCHE SCIENTIFIQUE, priority 2022, published 2025)

How the values were obtained:
[1] = test system: human B cell lymphoma line (RL line, CVCL_1660); experiment: Seahorse analysis of oxygen consumption rate (OCR); format: cell-based; conditions: for inhibition of OCR: RL cells; for effect on mitochondrial respiration: increasing concentrations 1.2-10 μM, compared to rotenone or IACS-010759
Experimental: The analyser known as “Seahorse” allows evaluation mitochondrial respiration in real time by measuring Oxygen Consumption Rate (OCR). The experiments have been carried out according to the supplier's recommendations (“Agilent_Seahorse XFe96”). To achieve this, 150,000 cells per well of a human B cell lymphoma line (“RL line, CVCL_1660”) have been seeded in 180 μL of Agilent_Seahorse XF RPMI medium (supplemented with pyruvate and glucose) on a dedicated Agilent_Seahorse 96-well plate, pre-treated with a solution of CellTak according to the supplier's recommendations (Corning). After 30 min incubation in a CO2-free oven, the plate has been analysed with the “Seahorse” using a protocol allowing injection (indicated by arrows in FIG. 1) of increasing amounts of compound to obtain a final cumulative concentration of 1.2 μM, 2.5 μM, 5 μM and 10 μM, followed each time by an OCR reading (in pmol/min) for 10 min. Data normalisation has been carried out by cell counting, using a device known as the “Cytation 1/5 Cell Imaging Multi-Mode reader” (BioTek Instruments, Inc) coupled to the “Seahorse”.
A control is used (DMSO, curve with solid squares) in each figure and corresponds to the medium studied without addition of compound (addition only of the DMSO diluent from the molecule stocks). […] In addition, injection of increasing concentrations of compounds in accordance with the invention induces progressive inhibition of OCR, in a similar manner and in stages for compounds (Ib) and (Ic), and progressively for compound (Ia).

[2] = test system: human B cell lymphoma cell line (Karpas422, CVCL_1325); experiment: Effect on cell growth, B cell lymphoma line Karpas422 (live cell count by flow cytometry or CellTiterFluor); format: cell-based; conditions: 10 μM, 48 h, RPMI and HLPM medium, FIG. 2
Experimental: Cells from a human B cell lymphoma cell line (“Karpas422, CVCL_1325”) have been seeded at a density of 100,000 cells per well, in a 96-well plate in the presence of a 10 μM concentration of compound, in a volume of 100 μL of medium. After 48 h of treatment, analyses of the effect on cell growth have been conducted, either by counting live cells using flow cytometry (FIG. 2a), or using a biochemical fluorescence detection kit for live cells (FIG. 2b).
In conventional “Gibco RPMI1640/10°/0 SVF” medium, the number of living cells has been determined after double AnnexinV/PI labelling, and analysis using the flow cytometer known as “ATTUNE” (Thermo Fisher Scientific). In “Gibco Human Like Plasma Medium”, the number of live cells has been evaluated using the “CellTiterFluor” kit and after measurement of relative fluorescence units (RFU) according to the supplier's recommendations (Promega). The term DMSO in FIG. 2 corresponds to the control, i.e. identical medium with no added compound.

[3] = test system: 31 human B and T cell lymphoma lines; experiment: AnnexinV/PI cytometry, % apoptotic cells in 31 lymphoma lines; format: cell-based; conditions: compared with IACS-010759, FIG. 3
Description: Analyses of the effect on cell growth of compound (Ia) in accordance with the invention in comparison with compound “[…]” (denoted IACS) not in accordance with the invention have been conducted on a wide series of 31 human B and T cell lymphoma lines, after AnnexinV/PI labelling and analysis with the “ATTUNE” cytometer (Thermo Fisher Scientific). In addition to the number of living cells represented in FIG. 2a, this technology enables the % of cells undergoing apoptosis to be evaluated. The results have been represented in FIG. 3 in the form of a “HeatMap” with a black and white gradient, black representing the highest % of apoptotic cells.

[4] = test system: human tumour cells of a B cell lymphoma line (SUDHL-4, CVCL_0539); experiment: In ovo xenograft model on the chorioallantoic membrane (CAM) of the chicken embryo; format: in vivo
Description: Preclinical evaluation analyses of the anti-tumour efficacy of compound (Ia) have been carried out using the xenograft model on the chorioallantoic membrane (CAM) of the chicken embryo. […] Treatments have been performed on days E11, E13, E15 and E17. At day E18, the upper CAM portions containing tumours have been removed and weighed, and the lower CAM fragments have been used to evaluate the presence of human cells indicative of metastases by RT-gPCR (polymerase chain reaction from an RNA sample). 0.0097 mg/kg Doxorubicin (DOXO) has been used as a positive control for treatment efficacy, compound (Ia) has been used at 3 different doses: 0.05 mg/kg, [2]: 0.15 mg/kg, and [3]: 0.45 mg/kg, and “IACS-010759” has been used at 2 different doses: 0.05 mg/kg, and [2]: 0.45 mg/kg. The negative control (denoted DMSO) represents treatment with the DMSO molecule diluent.

[5] = test system: RH30, CVCL_0041 rhabdomyosarcoma sarcoma line; experiment: Effect on cell growth, paediatric sarcoma line RH30 (CellTiterFluor); format: cell-based, human; conditions: 48 h, HLPM medium
Experimental: (§1) Human tumour cells from two paediatric rhabdomyosarcoma-like sarcoma lines (“RD136, CVCL_1649”, FIG. 5a and “RH3O, CVCL_0041”, FIG. 5b) have been seeded in a 96-well plate in the presence of a concentration of 10 μM of compound, in a volume of 100 μL of “Gibco Human Like Plasma Medium” (Gibco HPLM_Thermo Fisher Scientific). The effect of compounds (Ia), (Ib) and (Ic) has been compared with that of the inhibitors IACS-010759 (IACS) and IM156 (metformin analogue) currently in clinical trials, Rotenone (ROT) and the apoptosis inducer staurosporine (STS). After 48 hours of treatment, the effect on the number of living cells has been evaluated using the “CellTiterFluor” kit from Promega, identically to FIG. 2b.
Human tumour cells from the paediatric rhabdomyosarcoma sarcoma line (“RH30, CVCL_0041”) have been seeded in a 96-well plate in the presence of a 10 μM or 25 μM concentration of compound, in a 100 μL volume of “Gibco Human Like Plasma Medium” (Gibco HPLM_Thermo Fisher Scientific). After 48 h of treatment, the effect of compounds (Ia), (Ie) and (If) on cell growth has been evaluated using the Promega “CellTiterFluor” kit as in FIG. 2b.

[6] = test system: human B cell lymphoma cell line (Karpas422, CVCL_1325); experiment: IC50 on cell growth, Karpas422 (CellTiter-Fluor Cell Viability Assay); format: cell-based; conditions: KARPAS-422, Karpas422, RPMI 1640 (11 mM glucose) with 10% serum, 48 h
Experimental: These experiments have been performed using cells from a human B cell lymphoma cell line (“Karpas422, CVCL_1325”) which have been seeded in “RPMI 1640” medium (11 mM glucose) supplemented with 10% serum, in the presence of increasing concentrations of compounds.
After 48 h of treatment, analyses of the effect on cell growth have been conducted, using the “CellTiter-Fluor Cell Viability Assay” (Promega) live cell detection kit, as in FIG. 2b, and following the supplier's instructions.

[7] = test system: human B cell lymphoma cell line (RL, CVCL_1660); experiment: Effect on cell growth, B cell lymphoma line RL (live cell count by flow cytometry); format: cell-based; conditions: 5 μM or 10 μM, 48 h, RPMI medium, FIG. 6
Experimental: Cells from the human B cell lymphoma cell line (“RL, CVCL_1660”), have been seeded at a density of 100,000 cells per well, in a 96-well plate in the presence of a concentration of 5 μM or 10 μM of compound, in a volume of 100 μL of RPMI medium. After 48 h of treatment, analyses of the effect on cell growth have been conducted by counting live cells using flow cytometry, as in FIG. 2a.

[8] = test system: RD136, CVCL_1649 rhabdomyosarcoma-like sarcoma line; experiment: Effect on cell growth, paediatric sarcoma line RD136 (CellTiterFluor); format: cell-based, human; conditions: 10 μM, 48 h, HLPM medium, FIG. 5a
Experimental: as §1

[9] = 10 μM cumulative concentration, FIG. 1b
[10] = dose 0.15 mg/kg (compound Ia [2])
[11] = dose 0.45 mg/kg (compound Ia [3], IACS [2])

Row | SMILES | inhibition of OCR [1, 9] | effect on mitochondrial respiration [1] | effect on cell growth (number of live tumour cells) [2] | effect on cell growth (number of living cells) ([5]; 10 μM or 25 μM, FIG. 7) | effect on cell growth (number of living cells) [8] | effect on cell growth (number of living cells) ([5]; 10 μM, FIG. 5b) | other results
1 | c1cnc(NCCCCCCCCCCCCNC2=NCCN2)nc1 [Compound Ia, N′-(4,5-dihydro-1H-imidazol-2-yl)-N-pyrimidin-2-yl-dodecane-1,12-diamine] | Virtually complete inhibition of OCR | moderate and progressive effect | inhibit cell growth | inhibit cell growth |  |  | toxicity (% of apoptotic cells) [3]: increased with respect to that of “IACS-010759” for a sub-group of 8 lines; reduction in primary tumour volume [4, 10]: 73%; reduction in the relative number of metastases [4, 10]: 70%; reduction in primary tumour volume [4, 11]: 70%; reduction in the relative number of metastases [4, 11]: 72%; reduction in primary tumour volume ([4]; dose [1] 0.05 mg/kg): 48%; reduction in the relative number of metastases ([4]; dose [1] 0.05 mg/kg): 45%; IC50 [6]: 1.5 µM; effect on cell growth [7]: inhibitory effect on cell growth
2 | Cl.Cl.c1cnc(N2CCN(CCCCCCCCCCCCN3CCN(c4ncccn4)CC3)CC2)nc1 [Compound Ib, 2-[4-[12-(4-pyrimidin-2-ylpiperazin-1-yl)dodecyl]piperazin-1-yl]pyrimidine dihydrochloride] | Virtually complete inhibition of OCR | moderate and progressive effect | inhibit cell growth |  | inhibits cell growth | inhibits cell growth | 
3 | Cl.Cl.c1ccc(N2CCN(CCCCCCCCCCCCN3CCN(c4ccccn4)CC3)CC2)nc1 [Compound Ic, 1-(2-pyridyl)-4-[12-[4-(2-pyridyl)piperazin-1-yl]dodecyl]piperazine dihydrochloride] | Virtually complete inhibition of OCR | moderate and progressive effect | inhibit cell growth |  | inhibits cell growth | inhibits cell growth | 
4 | c1cnc(NCCCCCCCCCCCCNc2ncccn2)nc1 [Compound Id] |  |  |  |  | inhibits cell growth | inhibits cell growth | effect on cell growth [7]: inhibitory effect on cell growth
5 | c1cnc(N2CCN(CCCCCCCN3CCN(c4ncccn4)CC3)CC2)nc1 [Compound Ie] |  |  |  | inhibit cell growth |  |  | 
6 | Cl.Cl.c1ccc(N2CCN(CCCCCCCN3CCN(c4ccccn4)CC3)CC2)nc1 [Compound If] |  |  |  | inhibit cell growth |  |  | 
7 | C=C(C)[C@H]1Cc2c(ccc3c2O[C@@H]2COc4cc(OC)c(OC)cc4[C@@H]2C3=O)O1 [Rotenone, reference compound] |  |  |  |  |  |  | inhibition of OCR ([1]; 1.2 μM, FIG. 1a): instantaneous and almost complete inhibition of OCR
8 | COc1cccc2c1C(=O)c1c(O)c3c(c(O)c1C2=O)C[C@@](O)(C(=O)CO)C[C@@H]3O[C@H]1C[C@H](N)[C@H](O)[C@H](C)O1 [doxorubicin, Doxorubicin, reference compound] |  |  |  |  |  |  | regression in the number of metastases ([4]; 0.0097 mg/kg, lower CAM, RT-qPCR): 99%; reduction in primary tumour volume ([4]; 0.0097 mg/kg, treatments E11, E13, E15, E17, read at E18): 90%
9 | N/C(=N/c1cccc2ccccc12)SCCCCCCS/C(N)=N\c1cccc2ccccc12 [reference compound] |  |  |  |  |  |  | IC50 [6]: 15.1 µM
